From PubChem BioAssay (NCI)
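In this assay, cells in 96-well plates receive the compound at five concentrations for 48 hours. Endpoints are linearly interpolated between the surrounding concentrations. GI50 = concentration required for 50% inhibition of growth. TGI is the concentration that stops growth completely.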

Experiments:
Test in all cases: NCI tumour cell line growth inhibition, 48 h
HS 578T breast = system: HS 578T breast
RXF 393 renal = system: RXF 393 renal
UACC-257 melanoma = system: UACC-257 melanoma
HCC-2998 colon = system: HCC-2998 colon
MDA-MB-435 = system: MDA-MB-435
NCI-H522 lung = system: NCI-H522 lung
DU-145 prostate = system: DU-145 prostate
MALME-3M melanoma = system: MALME-3M melanoma
HOP-62 NSCLC = system: HOP-62 NSCLC
SK-MEL-28 melanoma = system: SK-MEL-28 melanoma
NCI-H460 lung = system: NCI-H460 lung
KM12 colon = system: KM12 colon
MCF7 breast = system: MCF7 breast
COLO 205 colon = system: COLO 205 colon
HL-60(TB) leukemia = system: HL-60(TB) leukemia
SK-MEL-2 melanoma = system: SK-MEL-2 melanoma
SNB-19 CNS = system: SNB-19 CNS
PC-3 prostate = system: PC-3 prostate
NCI/ADR-RES ovarian = system: NCI/ADR-RES ovarian
NCI-H23 lung = system: NCI-H23 lung
T-47D breast = system: T-47D breast
786-0 renal = system: 786-0 renal
RPMI-8226 leukemia = system: RPMI-8226 leukemia
HCT-15 colon = system: HCT-15 colon
OVCAR-3 ovarian = system: OVCAR-3 ovarian
SF-295 CNS = system: SF-295 CNS
SR leukemia = system: SR leukemia
A498 renal = system: A498 renal
CAKI-1 renal = system: CAKI-1 renal
NCI-H226 lung = system: NCI-H226 lung
M14 melanoma = system: M14 melanoma
CCRF-CEM leukemia = system: CCRF-CEM leukemia
MDA-MB-231 breast = system: MDA-MB-231 breast
K-562 leukemia = system: K-562 leukemia
OVCAR-4 ovarian = system: OVCAR-4 ovarian
ACHN renal = system: ACHN renal
A549 NSCLC = system: A549 NSCLC
SK-OV-3 ovarian = system: SK-OV-3 ovarian
HOP-92 NSCLC = system: HOP-92 NSCLC
SW-620 colon = system: SW-620 colon
HCT-116 colon = system: HCT-116 colon
SF-539 CNS = system: SF-539 CNS
OVCAR-5 ovarian = system: OVCAR-5 ovarian
TK-10 renal = system: TK-10 renal
MOLT-4 leukemia = system: MOLT-4 leukemia
LOX IMVI melanoma = system: LOX IMVI melanoma
SK-MEL-5 melanoma = system: SK-MEL-5 melanoma
UO-31 renal = system: UO-31 renal
SN12C renal = system: SN12C renal
UACC-62 melanoma = system: UACC-62 melanoma
IGROV1 ovarian = system: IGROV1 ovarian
OVCAR-8 ovarian = system: OVCAR-8 ovarian
MDA-MB-468 breast = system: MDA-MB-468 breast
HT29 colon = system: HT29 colon
U251 CNS = system: U251 CNS
SF-268 CNS = system: SF-268 CNS
EKVX NSCLC = system: EKVX NSCLC
BT-549 breast = system: BT-549 breast

SMILES: COc1ccc2[nH]cc(-c3nc(N)nnc3-c3cn(C)c4ncc(Br)cc34)c2c1
- GI50 (HS 578T breast): 319 nM
- TGI (HS 578T breast): > 78300 nM
- GI50 (RXF 393 renal): 244 nM
- TGI (RXF 393 renal): 3890 nM
- GI50 (UACC-257 melanoma): 724 nM
- TGI (UACC-257 melanoma): 27800 nM
- GI50 (HCC-2998 colon): 910 nM
- TGI (HCC-2998 colon): 12900 nM
- GI50 (MDA-MB-435): 37.9 nM
- TGI (MDA-MB-435): 205 nM
- GI50 (NCI-H522 lung): 26.6 nM
- TGI (NCI-H522 lung): 120 nM
- GI50 (DU-145 prostate): 446 nM
- TGI (DU-145 prostate): > 49700 nM
- GI50 (MALME-3M melanoma): 335 nM
- TGI (MALME-3M melanoma): 23000 nM
- GI50 (HOP-62 NSCLC): 547 nM
- TGI (HOP-62 NSCLC): > 76900 nM
- GI50 (SK-MEL-28 melanoma): 966 nM
- TGI (SK-MEL-28 melanoma): 34400 nM
- GI50 (NCI-H460 lung): 382 nM
- TGI (NCI-H460 lung): 18000 nM
- GI50 (KM12 colon): 241 nM
- TGI (KM12 colon): 17500 nM
- GI50 (MCF7 breast): 75.6 nM
- TGI (MCF7 breast): 25300 nM
- GI50 (COLO 205 colon): 305 nM
- TGI (COLO 205 colon): 1180 nM
- GI50 (HL-60(TB) leukemia): 168 nM
- TGI (HL-60(TB) leukemia): 3910 nM
- GI50 (SK-MEL-2 melanoma): 335 nM
- TGI (SK-MEL-2 melanoma): 15400 nM
- GI50 (SNB-19 CNS): 738 nM
- TGI (SNB-19 CNS): > 100000 nM
- GI50 (PC-3 prostate): 311 nM
- TGI (PC-3 prostate): > 60100 nM
- GI50 (NCI/ADR-RES ovarian): 1450 nM
- TGI (NCI/ADR-RES ovarian): 11200 nM
- GI50 (NCI-H23 lung): 461 nM
- TGI (NCI-H23 lung): 21700 nM
- GI50 (T-47D breast): 192 nM
- TGI (T-47D breast): 97200 nM
- GI50 (786-0 renal): 545 nM
- TGI (786-0 renal): 22200 nM
- GI50 (RPMI-8226 leukemia): 430 nM
- TGI (RPMI-8226 leukemia): > 40800 nM
- GI50 (HCT-15 colon): 354 nM
- TGI (HCT-15 colon): 21400 nM
- GI50 (OVCAR-3 ovarian): 250 nM
- TGI (OVCAR-3 ovarian): 2660 nM
- GI50 (SF-295 CNS): 230 nM
- TGI (SF-295 CNS): 10300 nM
- GI50 (SR leukemia): 69.3 nM
- TGI (SR leukemia): > 100000 nM
- GI50 (A498 renal): 12600 nM
- TGI (A498 renal): 48100 nM
- GI50 (CAKI-1 renal): 342 nM
- TGI (CAKI-1 renal): > 50800 nM
- GI50 (NCI-H226 lung): 676 nM
- TGI (NCI-H226 lung): 9150 nM
- GI50 (M14 melanoma): 292 nM
- TGI (M14 melanoma): 30300 nM
- GI50 (CCRF-CEM leukemia): 379 nM
- TGI (CCRF-CEM leukemia): > 84300 nM
- GI50 (MDA-MB-231 breast): 882 nM
- TGI (MDA-MB-231 breast): 48600 nM
- GI50 (K-562 leukemia): 85 nM
- TGI (K-562 leukemia): > 100000 nM
- GI50 (OVCAR-4 ovarian): 1440 nM
- TGI (OVCAR-4 ovarian): > 95500 nM
- GI50 (ACHN renal): 642 nM
- TGI (ACHN renal): 30500 nM
- GI50 (A549 NSCLC): 769 nM
- TGI (A549 NSCLC): > 95300 nM
- GI50 (SK-OV-3 ovarian): 482 nM
- TGI (SK-OV-3 ovarian): 48100 nM
- GI50 (HOP-92 NSCLC): 572 nM
- TGI (HOP-92 NSCLC): 14300 nM
- GI50 (SW-620 colon): 304 nM
- TGI (SW-620 colon): > 62400 nM
- GI50 (HCT-116 colon): 373 nM
- TGI (HCT-116 colon): 13800 nM
- GI50 (SF-539 CNS): 255 nM
- TGI (SF-539 CNS): 844 nM
- GI50 (OVCAR-5 ovarian): 568 nM
- TGI (OVCAR-5 ovarian): > 100000 nM
- GI50 (TK-10 renal): 13100 nM
- TGI (TK-10 renal): 42400 nM
- GI50 (MOLT-4 leukemia): 524 nM
- TGI (MOLT-4 leukemia): > 76700 nM
- GI50 (LOX IMVI melanoma): 484 nM
- TGI (LOX IMVI melanoma): 20100 nM
- GI50 (SK-MEL-5 melanoma): 233 nM
- TGI (SK-MEL-5 melanoma): 4050 nM
- GI50 (UO-31 renal): 717 nM
- TGI (UO-31 renal): 20300 nM
- GI50 (SN12C renal): 494 nM
- TGI (SN12C renal): 26400 nM
- GI50 (UACC-62 melanoma): 184 nM
- TGI (UACC-62 melanoma): 13300 nM
- GI50 (IGROV1 ovarian): 923 nM
- TGI (IGROV1 ovarian): 25000 nM
- GI50 (OVCAR-8 ovarian): 851 nM
- TGI (OVCAR-8 ovarian): 22900 nM
- GI50 (MDA-MB-468 breast): 30.1 nM
- TGI (MDA-MB-468 breast): 631 nM
- GI50 (HT29 colon): 317 nM
- TGI (HT29 colon): 2550 nM
- GI50 (U251 CNS): 491 nM
- TGI (U251 CNS): 38600 nM
- GI50 (SF-268 CNS): 1580 nM
- TGI (SF-268 CNS): 29600 nM
- GI50 (EKVX NSCLC): 864 nM
- TGI (EKVX NSCLC): > 72800 nM
- GI50 (BT-549 breast): 469 nM
- TGI (BT-549 breast): 7260 nM
